Measured values: ChEMBL document CHEMBL1154822, “Synthesis and antiproliferative activity of 7-azaindirubin-3'-oxime, a 7-aza isostere of the natural indirubin pharmacophore” (J Nat Prod, 2009)

Assays:
Type in all cases: functional
A498 [1] = assay: Cytotoxicity against human A498 cells assessed as cell growth at 1 uM after 1 to 11 days by MTT assay; conditions: read-out: Activity
PC-3 [2] = assay: Cytotoxicity against human PC3 cells assessed as cell growth at 1 uM after 1 to 11 days by MTT assay; conditions: read-out: Activity
NCI/ADR-RES = assay: Cytotoxicity against human NCI/ADR-RES cells assessed as cell growth at 1 uM after 1 to 11 days by MTT assay; conditions: read-out: Activity
MDA-MB-231 [3] = assay: Cytotoxicity against human MDA-MB-231 cells assessed as cell growth at 1 uM after 1 to 11 days by MTT assay; conditions: read-out: Activity
OVCAR-3 [4] = assay: Cytotoxicity against human OVCAR-3 cells assessed as cell growth at 10 uM after 1 to 11 days by MTT assay; conditions: read-out: Activity
SN12C [5] = assay: Cytotoxicity against human SN12C cells assessed as cell growth at 10 uM after 1 to 11 days by MTT assay; conditions: read-out: Activity
SR = assay: Cytotoxicity against human SR cells assessed as cell growth at 10 uM after 1 to 11 days by MTT assay; conditions: read-out: Activity
A549 = assay: Cytotoxicity against human A549 cells assessed as cell growth at 10 uM after 1 to 11 days by MTT assay; conditions: read-out: Activity
NCI-H226 [6] = assay: Cytotoxicity against human NCI-H226 cells assessed as cell growth at 10 uM after 1 to 11 days by MTT assay; conditions: read-out: Activity
NCI-H460 = assay: Cytotoxicity against human NCI-H460 cells assessed as cell growth at 10 uM after 1 to 11 days by MTT assay; conditions: read-out: Activity
HCT-116 = assay: Cytotoxicity against human HCT116 cells assessed as cell growth at 10 uM after 1 to 11 days by MTT assay; conditions: read-out: Activity
HCT-15 [7] = assay: Cytotoxicity against human HCT15 cells assessed as cell growth at 10 uM after 1 to 11 days by MTT assay; conditions: read-out: Activity
M14 = assay: Cytotoxicity against human M14 cells assessed as cell growth at 100 uM after 1 to 11 days by MTT assay; conditions: read-out: Activity
CCRF-CEM = assay: Cytotoxicity against human CCRF-CEM cells assessed as cell growth at 100 uM after 1 to 11 days by MTT assay; conditions: read-out: Activity
HL-60(TB) [8] = assay: Cytotoxicity against human HL-60(TB) cells assessed as cell growth at 100 uM after 1 to 11 days by MTT assay; conditions: read-out: Activity
K562 = assay: Cytotoxicity against human K562 cells assessed as cell growth at 100 uM after 1 to 11 days by MTT assay; conditions: read-out: Activity
OVCAR-8 = assay: Cytotoxicity against human OVCAR8 cells assessed as cell growth at 100 uM after 1 to 11 days by MTT assay; conditions: read-out: Activity
786-0 [9] = assay: Cytotoxicity against human 786-0 cells assessed as cell growth at 100 uM after 1 to 11 days by MTT assay; conditions: read-out: Activity
SN12C [10] = assay: Cytotoxicity against human SN12C cells assessed as cell growth at 100 uM after 1 to 11 days by MTT assay; conditions: read-out: Activity
MDA-MB-231 [11] = assay: Cytotoxicity against human MDA-MB-231 cells assessed as cell growth at 100 uM after 1 to 11 days by MTT assay; conditions: read-out: Activity
HL-60(TB) [12] = assay: Cytotoxicity against human HL-60(TB) cells assessed as cell growth at 1 mM after 1 to 11 days by MTT assay; conditions: read-out: Activity
HOP-62 = assay: Cytotoxicity against human HOP62 cells assessed as cell growth at 1 mM after 1 to 11 days by MTT assay; conditions: read-out: Activity
NCI-H226 [13] = assay: Cytotoxicity against human NCI-H226 cells assessed as cell growth at 1 mM after 1 to 11 days by MTT assay; conditions: read-out: Activity
NCI-H522 = assay: Cytotoxicity against human NCI-H522 cells assessed as cell growth at 1 mM after 1 to 11 days by MTT assay; conditions: read-out: Activity
HOP-92 [14] = assay: Cytotoxicity against human HOP92 cells after 1 to 11 days by MTT assay
NCI-H226 [15] = assay: Cytotoxicity against human NCI-H226 cells after 1 to 11 days by MTT assay
SK-OV-3 = assay: Cytotoxicity against human SKOV3 cells assessed as cell growth at 1 mM after 1 to 11 days by MTT assay; conditions: read-out: Activity
SN12C [16] = assay: Cytotoxicity against human SN12C cells assessed as cell growth at 1 mM after 1 to 11 days by MTT assay; conditions: read-out: Activity
SK-MEL-5 = assay: Cytotoxicity against human SK-MEL-5 cells after 1 to 11 days by MTT assay
A498 [17] = assay: Cytotoxicity against human A498 cells after 1 to 11 days by MTT assay
MCF7 = assay: Cytotoxicity against human MCF7 cells after 1 to 11 days by MTT assay
T47D = assay: Cytotoxicity against human T47D cells after 1 to 11 days by MTT assay
HCC 2998 = assay: Cytotoxicity against human HCC2998 cells assessed as cell growth at 0.1 uM after 1 to 11 days by MTT assay; conditions: read-out: Activity
HCT-15 [18] = assay: Cytotoxicity against human HCT15 cells assessed as cell growth at 0.1 uM after 1 to 11 days by MTT assay; conditions: read-out: Activity
OVCAR-3 [19] = assay: Cytotoxicity against human OVCAR-3 cells assessed as cell growth at 0.1 uM after 1 to 11 days by MTT assay; conditions: read-out: Activity
OVCAR-5 = assay: Cytotoxicity against human OVCAR5 cells assessed as cell growth at 0.1 uM after 1 to 11 days by MTT assay; conditions: read-out: Activity
786-0 [20] = assay: Cytotoxicity against human 786-0 cells assessed as cell growth at 0.1 uM after 1 to 11 days by MTT assay; conditions: read-out: Activity
RXF 393 = assay: Cytotoxicity against human […] cells assessed as cell growth at 0.1 uM after 1 to 11 days by MTT assay; conditions: read-out: Activity
TK-10 = assay: Cytotoxicity against human TK10 cells assessed as cell growth at 0.1 uM after 1 to 11 days by MTT assay; conditions: read-out: Activity
UO-31 = assay: Cytotoxicity against human UO31 cells assessed as cell growth at 0.1 uM after 1 to 11 days by MTT assay; conditions: read-out: Activity
PC-3 [21] = assay: Cytotoxicity against human PC3 cells assessed as cell growth at 0.1 uM after 1 to 11 days by MTT assay; conditions: read-out: Activity
BT-549 = assay: Cytotoxicity against human BT549 cells assessed as cell growth at 0.1 uM after 1 to 11 days by MTT assay; conditions: read-out: Activity
HOP-92 [22] = assay: Cytotoxicity against human HOP92 cells assessed as cell growth at 1 uM after 1 to 11 days by MTT assay; conditions: read-out: Activity
KM12 = assay: Cytotoxicity against human KM12 cells assessed as cell growth at 1 uM after 1 to 11 days by MTT assay; conditions: read-out: Activity
[23] = read-out: LC50 (the source's name)

SMILES: O=C1Nc2ncccc2/C1=C1/Nc2ccccc2/C1=N\O
- growth at 1 µM (A498 [1]): 85%
- growth at 1 µM (PC-3 [2]): 83%
- growth at 1 µM (NCI/ADR-RES): 100%
- growth at 1 µM (MDA-MB-231 [3]): 88%
- growth at 10 µM (OVCAR-3 [4]): 80%
- growth at 10 µM (SN12C [5]): 81%
- growth at 10 µM (SR): 147%
- growth at 10 µM (A549): 91%
- growth at 10 µM (NCI-H226 [6]): 53%
- growth at 10 µM (NCI-H460): 97%
- growth at 10 µM (HCT-116): 108%
- growth at 10 µM (HCT-15 [7]): 80%
- growth at 100 µM (M14): 46%
- growth at 100 µM (CCRF-CEM): 37%
- growth at 100 µM (HL-60(TB) [8]): 38%
- growth at 100 µM (K562): 39%
- growth at 100 µM (OVCAR-8): 50%
- growth at 100 µM (786-0 [9]): 41%
- growth at 100 µM (SN12C [10]): 37%
- growth at 100 µM (MDA-MB-231 [11]): 40%
- growth at 1000 µM (HL-60(TB) [12]): 7%
- growth at 1000 µM (HOP-62): 74%
- growth at 1000 µM (NCI-H226 [13]): 13%
- growth at 1000 µM (NCI-H522): 50%
- GI50 (HOP-92 [14]): 2.97 µM
- TGI (HOP-92 [14]): > 100 µM
- CC50 (HOP-92 [14]; [23]): > 100 µM
- GI50 (NCI-H226 [15]): 1.14 µM
- TGI (NCI-H226 [15]): > 100 µM
- CC50 (NCI-H226 [15]; [23]): > 100 µM
- growth at 1000 µM (SK-OV-3): 8%
- growth at 1000 µM (SN12C [16]): 36%
- GI50 (SK-MEL-5): 9.53 µM
- TGI (SK-MEL-5): > 100 µM
- CC50 (SK-MEL-5; [23]): > 100 µM
- GI50 (A498 [17]): 1.93 µM
- TGI (A498 [17]): > 100 µM
- CC50 (A498 [17]; [23]): > 100 µM
- GI50 (MCF7): 15.9 µM
- TGI (MCF7): > 100 µM
- CC50 (MCF7; [23]): > 100 µM
- GI50 (T47D): 2.03 µM
- TGI (T47D): > 100 µM
- CC50 (T47D; [23]): > 100 µM
- growth at 0.1 µM (HCC 2998): 93%
- growth at 0.1 µM (HCT-15 [18]): 95%
- growth at 0.1 µM (OVCAR-3 [19]): 99%
- growth at 0.1 µM (OVCAR-5): 89%
- growth at 0.1 µM (786-0 [20]): 119%
- growth at 0.1 µM (RXF 393): 93%
- growth at 0.1 µM (TK-10): 101%
- growth at 0.1 µM (UO-31): 85%
- growth at 0.1 µM (PC-3 [21]): 96%
- growth at 0.1 µM (BT-549): 89%
- growth at 1 µM (HOP-92 [22]): 81%
- growth at 1 µM (KM12): 91%
